From the kinase profiling compilation of Christmann-Franck et al. (2016)

Legend:
Test in all cases: radiometric filter-binding kinase assay, Kinase HotSpot
Conditions in all cases: compound 0.5 µM; ATP 10 µM
[1] = target: SRC (human) (UniProt P12931)
[2] = target: MAPK11 (human) (UniProt Q15759)
[3] = target: RPS6KB1 (human) (UniProt P23443)
[4] = target: LCK (human) (UniProt P06239)
[5] = target: EPHA8 (human) (UniProt P29322)
[6] = target: ABL2 (human) (UniProt P42684)
[7] = target: PKN1 (human) (UniProt Q16512)
[8] = target: MUSK (human) (UniProt O15146)
[9] = target: DAPK1 (human) (UniProt P53355)
[10] = target: CDK3 CCNE1 (human) (UniProt Q00526+P24864)
[11] = target: PHKG1 (human) (UniProt Q16816)
[12] = target: NEK9 (human) (UniProt Q8TD19)
[13] = target: CSK (human) (UniProt P41240)
[14] = target: MAP4K5 (human) (UniProt Q9Y4K4)
[15] = target: NEK6 (human) (UniProt Q9HC98)
[16] = target: TBK1 (human) (UniProt Q9UHD2)
[17] = target: ACVR1 (human) (UniProt Q04771)
[18] = target: VRK1 (human) (UniProt Q99986)
[19] = target: INSR (human) (UniProt P06213)
[20] = target: CAMK1 (human) (UniProt Q14012)
[21] = target: SRPK1 (human) (UniProt Q96SB4)
[22] = target: CDC42BPA (human) (UniProt Q5VT25)
[23] = target: PAK2 (human) (UniProt Q13177)
[24] = target: IKBKB (human) (UniProt O14920)
[25] = target: AKT2 (human) (UniProt P31751)
[26] = target: HIPK3 (human) (UniProt Q9H422)
[27] = target: FLT1 (human) (UniProt P17948)
[28] = target: FGFR4 (human) (UniProt P22455)
[29] = target: KIT (human) (UniProt P10721)
[30] = target: RET (human) (UniProt P07949)
[31] = target: CHUK (human) (UniProt O15111)
[32] = target: DYRK1B (human) (UniProt Q9Y463)
[33] = target: ULK2 (human) (UniProt Q8IYT8)
[34] = target: RPS6KA1 KD1 KD2 (human) (UniProt Q15418)
[35] = target: PAK1 (human) (UniProt Q13153)
[36] = target: MAPKAPK3 (human) (UniProt Q16644)
[37] = target: PRKG2 (human) (UniProt Q13237)
[38] = target: RPS6KA2 KD1 KD2 (human) (UniProt Q15349)
[39] = target: MAP3K8 (human) (UniProt P41279)
[40] = target: TAOK3 (human) (UniProt Q9H2K8)
[41] = target: TGFBR2 (human) (UniProt P37173)
[42] = target: STK3 (human) (UniProt Q13188)

Sequence of INSR (human) (P06213 whole entry, looked up): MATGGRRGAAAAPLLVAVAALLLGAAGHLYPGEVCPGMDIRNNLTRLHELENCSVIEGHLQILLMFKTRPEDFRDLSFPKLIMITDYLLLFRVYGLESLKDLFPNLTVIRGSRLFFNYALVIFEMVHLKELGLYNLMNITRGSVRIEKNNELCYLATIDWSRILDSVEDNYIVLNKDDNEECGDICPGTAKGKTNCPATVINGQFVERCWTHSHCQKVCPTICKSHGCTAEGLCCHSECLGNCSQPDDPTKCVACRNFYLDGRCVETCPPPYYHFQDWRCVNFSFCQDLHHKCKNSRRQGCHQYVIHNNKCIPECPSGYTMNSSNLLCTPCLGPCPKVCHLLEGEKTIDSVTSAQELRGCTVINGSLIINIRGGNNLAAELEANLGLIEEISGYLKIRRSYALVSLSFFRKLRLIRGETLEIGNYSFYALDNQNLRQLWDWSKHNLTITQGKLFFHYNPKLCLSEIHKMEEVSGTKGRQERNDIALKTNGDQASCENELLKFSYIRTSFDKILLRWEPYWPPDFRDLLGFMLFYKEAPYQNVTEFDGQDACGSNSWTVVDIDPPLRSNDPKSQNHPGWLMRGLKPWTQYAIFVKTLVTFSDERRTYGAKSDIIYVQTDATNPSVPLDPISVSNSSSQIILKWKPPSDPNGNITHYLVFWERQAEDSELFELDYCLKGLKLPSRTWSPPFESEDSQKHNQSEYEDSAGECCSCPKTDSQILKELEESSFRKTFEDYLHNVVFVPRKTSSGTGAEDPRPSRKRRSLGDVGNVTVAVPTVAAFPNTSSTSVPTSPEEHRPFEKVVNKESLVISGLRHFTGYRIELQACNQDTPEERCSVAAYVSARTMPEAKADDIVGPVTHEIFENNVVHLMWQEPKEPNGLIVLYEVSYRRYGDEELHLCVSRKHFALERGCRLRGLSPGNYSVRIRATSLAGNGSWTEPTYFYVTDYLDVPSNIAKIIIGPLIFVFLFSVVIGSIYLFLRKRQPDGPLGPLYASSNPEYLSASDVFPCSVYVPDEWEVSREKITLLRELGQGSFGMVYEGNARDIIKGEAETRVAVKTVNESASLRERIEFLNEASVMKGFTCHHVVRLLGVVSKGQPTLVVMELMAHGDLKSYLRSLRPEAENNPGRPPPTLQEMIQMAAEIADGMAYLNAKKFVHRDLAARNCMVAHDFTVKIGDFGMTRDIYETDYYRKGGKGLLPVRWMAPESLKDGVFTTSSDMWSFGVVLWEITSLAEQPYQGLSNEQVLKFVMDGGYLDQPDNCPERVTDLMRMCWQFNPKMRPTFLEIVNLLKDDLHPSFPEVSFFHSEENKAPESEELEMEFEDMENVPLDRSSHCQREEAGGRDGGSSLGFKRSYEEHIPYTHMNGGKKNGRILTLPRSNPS
Sequence of LCK (human) (P06239 whole entry, looked up): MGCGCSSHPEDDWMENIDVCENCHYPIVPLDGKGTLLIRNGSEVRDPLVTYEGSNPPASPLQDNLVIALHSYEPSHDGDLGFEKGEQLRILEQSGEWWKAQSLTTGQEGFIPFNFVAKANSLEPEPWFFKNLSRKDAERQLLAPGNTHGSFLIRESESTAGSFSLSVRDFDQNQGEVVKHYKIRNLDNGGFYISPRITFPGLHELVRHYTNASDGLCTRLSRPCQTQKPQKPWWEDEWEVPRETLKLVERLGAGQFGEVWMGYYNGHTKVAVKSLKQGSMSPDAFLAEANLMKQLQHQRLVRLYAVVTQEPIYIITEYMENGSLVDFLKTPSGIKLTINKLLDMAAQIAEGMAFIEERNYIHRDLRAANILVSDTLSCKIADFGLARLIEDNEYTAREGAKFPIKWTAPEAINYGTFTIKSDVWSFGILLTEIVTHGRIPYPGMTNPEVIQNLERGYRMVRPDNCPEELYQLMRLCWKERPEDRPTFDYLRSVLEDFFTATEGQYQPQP
Sequence of PHKG1 (human) (Q16816 whole entry, looked up): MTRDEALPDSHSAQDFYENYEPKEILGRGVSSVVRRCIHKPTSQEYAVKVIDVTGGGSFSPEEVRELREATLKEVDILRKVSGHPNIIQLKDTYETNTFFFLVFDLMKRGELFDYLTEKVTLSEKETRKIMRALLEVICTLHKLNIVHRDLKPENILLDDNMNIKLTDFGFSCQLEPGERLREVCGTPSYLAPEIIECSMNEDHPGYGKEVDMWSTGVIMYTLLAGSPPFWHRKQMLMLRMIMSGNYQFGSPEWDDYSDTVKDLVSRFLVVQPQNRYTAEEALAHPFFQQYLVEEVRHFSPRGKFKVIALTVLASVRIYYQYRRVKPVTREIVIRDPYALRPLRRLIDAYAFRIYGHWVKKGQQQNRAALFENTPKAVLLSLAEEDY
Sequence of ACVR1 (human) (Q04771 whole entry, looked up): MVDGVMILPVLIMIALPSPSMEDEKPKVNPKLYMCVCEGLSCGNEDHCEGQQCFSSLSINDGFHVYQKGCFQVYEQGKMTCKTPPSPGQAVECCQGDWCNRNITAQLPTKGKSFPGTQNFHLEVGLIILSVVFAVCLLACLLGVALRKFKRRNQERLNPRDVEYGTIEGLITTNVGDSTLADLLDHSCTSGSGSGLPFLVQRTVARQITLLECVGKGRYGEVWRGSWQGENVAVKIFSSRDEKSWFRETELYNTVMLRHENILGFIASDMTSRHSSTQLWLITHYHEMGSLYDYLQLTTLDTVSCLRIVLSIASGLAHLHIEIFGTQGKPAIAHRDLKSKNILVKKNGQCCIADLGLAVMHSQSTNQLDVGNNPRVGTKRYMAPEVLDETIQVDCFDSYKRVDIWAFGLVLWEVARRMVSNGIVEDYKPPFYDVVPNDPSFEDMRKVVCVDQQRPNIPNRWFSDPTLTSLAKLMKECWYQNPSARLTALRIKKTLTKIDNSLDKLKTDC
Sequence of RET (human) (P07949 whole entry, looked up): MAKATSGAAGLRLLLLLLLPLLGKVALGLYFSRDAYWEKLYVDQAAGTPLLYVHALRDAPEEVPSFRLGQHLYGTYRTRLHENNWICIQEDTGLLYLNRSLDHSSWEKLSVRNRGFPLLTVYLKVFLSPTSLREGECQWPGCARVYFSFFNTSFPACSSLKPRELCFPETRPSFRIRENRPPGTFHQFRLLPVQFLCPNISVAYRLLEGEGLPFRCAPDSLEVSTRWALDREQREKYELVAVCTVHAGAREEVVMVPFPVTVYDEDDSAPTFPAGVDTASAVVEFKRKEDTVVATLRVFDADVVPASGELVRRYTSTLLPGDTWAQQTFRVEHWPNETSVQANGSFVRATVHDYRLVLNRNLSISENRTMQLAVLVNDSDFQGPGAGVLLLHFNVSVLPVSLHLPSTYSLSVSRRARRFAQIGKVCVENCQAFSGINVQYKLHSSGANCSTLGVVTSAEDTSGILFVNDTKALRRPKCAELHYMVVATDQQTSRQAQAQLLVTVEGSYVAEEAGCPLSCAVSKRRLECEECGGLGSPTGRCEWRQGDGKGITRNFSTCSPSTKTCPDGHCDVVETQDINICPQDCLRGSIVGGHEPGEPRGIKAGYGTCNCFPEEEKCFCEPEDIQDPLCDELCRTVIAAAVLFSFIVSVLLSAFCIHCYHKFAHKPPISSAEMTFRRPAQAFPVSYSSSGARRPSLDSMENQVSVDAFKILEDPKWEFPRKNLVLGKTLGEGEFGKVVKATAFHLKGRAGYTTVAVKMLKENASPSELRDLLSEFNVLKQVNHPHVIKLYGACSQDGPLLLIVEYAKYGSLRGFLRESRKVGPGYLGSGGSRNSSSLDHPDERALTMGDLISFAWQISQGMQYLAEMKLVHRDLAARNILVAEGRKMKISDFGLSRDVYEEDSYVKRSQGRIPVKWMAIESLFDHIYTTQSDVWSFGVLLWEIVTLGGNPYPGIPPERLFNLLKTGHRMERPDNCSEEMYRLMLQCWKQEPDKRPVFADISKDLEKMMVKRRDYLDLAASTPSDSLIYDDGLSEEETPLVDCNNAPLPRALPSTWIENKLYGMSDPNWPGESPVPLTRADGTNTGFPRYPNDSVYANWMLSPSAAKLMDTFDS
Sequence of RPS6KA1 KD1 KD2 (human) (Q15418 whole entry, looked up): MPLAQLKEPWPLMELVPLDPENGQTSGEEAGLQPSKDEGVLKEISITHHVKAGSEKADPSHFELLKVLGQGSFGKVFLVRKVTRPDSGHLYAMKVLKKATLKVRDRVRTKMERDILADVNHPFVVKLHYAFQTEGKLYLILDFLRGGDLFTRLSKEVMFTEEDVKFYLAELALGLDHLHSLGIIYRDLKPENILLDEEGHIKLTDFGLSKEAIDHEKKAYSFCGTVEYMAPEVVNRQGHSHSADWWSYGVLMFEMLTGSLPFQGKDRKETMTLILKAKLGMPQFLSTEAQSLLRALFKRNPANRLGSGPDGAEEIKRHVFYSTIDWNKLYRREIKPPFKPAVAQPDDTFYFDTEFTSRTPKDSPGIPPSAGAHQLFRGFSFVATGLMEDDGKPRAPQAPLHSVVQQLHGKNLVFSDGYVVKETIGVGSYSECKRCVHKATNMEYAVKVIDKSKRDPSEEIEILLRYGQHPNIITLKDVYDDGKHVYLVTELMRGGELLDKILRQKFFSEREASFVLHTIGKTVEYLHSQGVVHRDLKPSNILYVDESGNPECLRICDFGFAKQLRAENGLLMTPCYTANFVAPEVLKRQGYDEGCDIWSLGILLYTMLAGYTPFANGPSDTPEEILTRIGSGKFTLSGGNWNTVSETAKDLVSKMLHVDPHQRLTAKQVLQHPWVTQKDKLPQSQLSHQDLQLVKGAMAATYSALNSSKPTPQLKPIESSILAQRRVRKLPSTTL
Sequence of MAPKAPK3 (human) (Q16644 whole entry, looked up): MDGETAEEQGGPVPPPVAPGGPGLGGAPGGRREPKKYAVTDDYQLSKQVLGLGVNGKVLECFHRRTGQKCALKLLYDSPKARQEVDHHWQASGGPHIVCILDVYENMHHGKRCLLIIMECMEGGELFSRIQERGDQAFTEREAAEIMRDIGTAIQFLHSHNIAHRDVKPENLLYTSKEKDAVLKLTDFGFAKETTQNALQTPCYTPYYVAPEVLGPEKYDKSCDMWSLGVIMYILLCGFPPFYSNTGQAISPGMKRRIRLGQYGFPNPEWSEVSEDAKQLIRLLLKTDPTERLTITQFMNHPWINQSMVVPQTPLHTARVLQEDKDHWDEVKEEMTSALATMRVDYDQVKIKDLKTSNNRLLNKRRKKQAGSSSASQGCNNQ

**Q.** With Cn1cnc2cc3c(Nc4cccc(Br)c4)ncnc3cc21 as the molecule, how does the residual activity [1] read?
**A.** 81.2%

**Q.** What about the residual activity [2] of the same molecule?
**A.** 85.9%

**Q.** And the residual activity [3]?
**A.** 100%

**Q.** What about the residual activity [4] of the same molecule?
**A.** 47.7%

**Q.** What about the residual activity [5] of the same molecule?
**A.** 85.4%

**Q.** What about the residual activity [6] of the same molecule?
**A.** 37%

**Q.** And the residual activity [7]?
**A.** 89.1%

**Q.** And the residual activity [8]?
**A.** 85.3%

**Q.** What about the residual activity [9] of the same molecule?
**A.** 87.2%

**Q.** What about the residual activity [10] of the same molecule?
**A.** 92.5%

**Q.** What about the residual activity [11] of the same molecule?
**A.** 85%

**Q.** And the residual activity [12]?
**A.** 90%

**Q.** And the residual activity [13]?
**A.** 88.1%

**Q.** What about the residual activity [14] of the same molecule?
**A.** 56.1%

**Q.** What about the residual activity [15] of the same molecule?
**A.** 98.1%

**Q.** And the residual activity [16]?
**A.** 87.7%

**Q.** What about the residual activity [17] of the same molecule?
**A.** 109%

**Q.** What about the residual activity [18] of the same molecule?
**A.** 100%

**Q.** What about the residual activity [19] of the same molecule?
**A.** 94.4%

**Q.** And the residual activity [20]?
**A.** 106%

**Q.** What about the residual activity [21] of the same molecule?
**A.** 96.1%

**Q.** What about the residual activity [22] of the same molecule?
**A.** 93.2%

**Q.** What about the residual activity [23] of the same molecule?
**A.** 99.8%

**Q.** And the residual activity [24]?
**A.** 104%

**Q.** What about the residual activity [25] of the same molecule?
**A.** 106%

**Q.** What about the residual activity [26] of the same molecule?
**A.** 107%

**Q.** What about the residual activity [27] of the same molecule?
**A.** 77.4%

**Q.** What about the residual activity [28] of the same molecule?
**A.** 94.1%

**Q.** What about the residual activity [29] of the same molecule?
**A.** 78.6%

**Q.** What about the residual activity [30] of the same molecule?
**A.** 54.4%

**Q.** What about the residual activity [31] of the same molecule?
**A.** 89.7%

**Q.** And the residual activity [32]?
**A.** 98.1%

**Q.** And the residual activity [33]?
**A.** 74.8%

**Q.** What about the residual activity [34] of the same molecule?
**A.** 103%

**Q.** What about the residual activity [35] of the same molecule?
**A.** 91.4%

**Q.** What about the residual activity [36] of the same molecule?
**A.** 94.4%

**Q.** And the residual activity [37]?
**A.** 63.6%

**Q.** And the residual activity [38]?
**A.** 79.4%

**Q.** And the residual activity [39]?
**A.** 90.1%

**Q.** And the residual activity [40]?
**A.** 97.6%

**Q.** And the residual activity [41]?
**A.** 98.9%

**Q.** What about the residual activity [42] of the same molecule?
**A.** 89.9%

**Q.** Which results are given for CCN(CC)CCCCN1c2ccccc2Oc2ccc(Cl)cc21?
**A.** residual activity [1]: 106%; residual activity [2]: 103%; residual activity [3]: 97.7%; residual activity [4]: 94.6%; residual activity [5]: 102%; residual activity [6]: 101%; residual activity [7]: 89.6%; residual activity [8]: 103%; residual activity [9]: 76.6%; residual activity [10]: 90.3%; residual activity [11]: 96.5%; residual activity [12]: 98.8%; residual activity [13]: 99.1%; residual activity [14]: 93.4%; residual activity [15]: 107%; residual activity [16]: 86.3%; residual activity [17]: 101%; residual activity [18]: 101%; residual activity [19]: 109%; residual activity [20]: 101%; residual activity [21]: 97.2%; residual activity [22]: 111%; residual activity [23]: 98.6%; residual activity [24]: 96.6%; residual activity [25]: 101%; residual activity [26]: 94.2%; residual activity [27]: 94.3%; residual activity [28]: 92.6%; residual activity [29]: 107%; residual activity [30]: 96.3%; residual activity [31]: 98.8%; residual activity [32]: 101%; residual activity [33]: 103%; residual activity [34]: 97.5%; residual activity [35]: 87.7%; residual activity [36]: 105%; residual activity [37]: 94.4%; residual activity [38]: 88%; residual activity [39]: 94.7%; residual activity [40]: 110%; residual activity [41]: 96%; residual activity [42]: 106%

**Q.** Cn1nc2c3c(cccc31)C(=O)c1ccccc1-2 was tested. Which residual activity [1] did it give?
**A.** 90.7%

**Q.** What about the residual activity [2] of the same molecule?
**A.** 109%

**Q.** And the residual activity [3]?
**A.** 96.3%

**Q.** What about the residual activity [4] of the same molecule?
**A.** 99.2%

**Q.** What about the residual activity [5] of the same molecule?
**A.** 99.4%

**Q.** And the residual activity [6]?
**A.** 97.8%

**Q.** And the residual activity [7]?
**A.** 101%

**Q.** What about the residual activity [8] of the same molecule?
**A.** 88.4%

**Q.** What about the residual activity [9] of the same molecule?
**A.** 86.4%

**Q.** What about the residual activity [10] of the same molecule?
**A.** 87.5%

**Q.** And the residual activity [11]?
**A.** 86.4%

**Q.** What about the residual activity [12] of the same molecule?
**A.** 96.6%

**Q.** What about the residual activity [13] of the same molecule?
**A.** 88.7%

**Q.** And the residual activity [14]?
**A.** 86%

**Q.** And the residual activity [15]?
**A.** 108%

**Q.** What about the residual activity [16] of the same molecule?
**A.** 88.8%

**Q.** And the residual activity [17]?
**A.** 110%

**Q.** What about the residual activity [18] of the same molecule?
**A.** 84.1%

**Q.** And the residual activity [19]?
**A.** 99.5%

**Q.** And the residual activity [20]?
**A.** 104%

**Q.** And the residual activity [21]?
**A.** 99.7%

**Q.** What about the residual activity [22] of the same molecule?
**A.** 106%

**Q.** What about the residual activity [23] of the same molecule?
**A.** 102%

**Q.** And the residual activity [24]?
**A.** 103%

**Q.** And the residual activity [25]?
**A.** 98.9%

**Q.** And the residual activity [26]?
**A.** 113%

**Q.** And the residual activity [27]?
**A.** 84.3%

**Q.** And the residual activity [28]?
**A.** 108%

**Q.** And the residual activity [29]?
**A.** 86.4%

**Q.** What about the residual activity [30] of the same molecule?
**A.** 83.8%

**Q.** And the residual activity [31]?
**A.** 97%

**Q.** And the residual activity [32]?
**A.** 93.1%

**Q.** And the residual activity [33]?
**A.** 109%

**Q.** What about the residual activity [34] of the same molecule?
**A.** 93.7%

**Q.** What about the residual activity [35] of the same molecule?
**A.** 98.5%

**Q.** What about the residual activity [36] of the same molecule?
**A.** 104%

**Q.** And the residual activity [37]?
**A.** 105%

**Q.** What about the residual activity [38] of the same molecule?
**A.** 93.5%

**Q.** And the residual activity [39]?
**A.** 94.3%

**Q.** And the residual activity [40]?
**A.** 87.6%

**Q.** And the residual activity [41]?
**A.** 94.9%

**Q.** And the residual activity [42]?
**A.** 88.4%
